Source: patent US8404460B2, “Method for detecting and/or identifying Clostridium difficile” (Biomerieux, priority 2008, dated 2013)

How the values were obtained:
Clostridium difficile [1] = assay: Example 3: Colombia base media with a chromogenic beta-glucosidase substrate and 300 mg/l ammoniacal iron citrate; type: cell-based; parameters: key to diffusion of the coloration: *: diffusion of trie coloration; conditions: Clostridium difficile strains, 48 h; for Co = coloration / Gr = growth: Colombia base, 300 mg/l ammoniacal iron citrate
Clostridium difficile [2] = assay: Example 5: two prototype media for C. difficile, % of strains producing a coloration; type: cell-based
Protocol: (§1) 107 strains were tested on two prototype media for C. difficile, the compositions of which are the following (per liter):
(§2) The inoculation is carried out from precultures prepared for 48 h at 37° C. under anaerobic conditions.
(§3) A suspension in physiological saline at 0.5 McF is prepared and then the strains are inoculated using a 10 μl calibrated loop.
(§4) The readings are carried out after incubation for 24 and 48 hours at 37° C.

Other Clostridium = type: cell-based, Clostridium spp
[3] = tested on: strains other than Clostridium difficile; assay: Example 5: selectivity of the medium, growth of strains other than Clostridium difficile; type: cell-based
Protocol: as §1, §2, §3, §4

Clostridium difficile [4] = assay: Example 2: egg yolk base media each containing a chromogenic beta-glucosidase substrate, growth and coloration of strains; type: cell-based; conditions: for Co = coloration / Gr = growth: Clostridium difficile strains, 48 h, egg yolk base; for sensitivity with respect to Clostridium difficile: Example 2, 48 h
[5] = tested on: C. difficile strains 042, 308, 169, 187; assay: Example 4: five CHE-beta-glucoside media with varying esculin and glucose, colony diameter and coloration strength; type: cell-based, Clostridium difficile; conditions: Example 4, according to medium 2
Protocol: Five media, each containing 48.10 g/l of Columbia base, 2.5 g/l of sodium taurocholate, 200 mg/l of ammoniacal iron citrate, 100 mg/l of CHE-beta-glucoside, and also an inhibitor system normally used in the media for Clostridium difficile, based on D-cycloserine, and varying concentrations of esculin and glucose (see following table):
as §2, §3
The readings are carried out after incubation for 24 hours at 37° C.
For Growth: • The values indicated correspond to the diameter of the colonies.
For Coloration Strength: • 1 corresponds to the presence of a clear coloration of weak strength, • 1.5 corresponds to the presence of a coloration that is intermediate between colorations 1 and 2, • 2 corresponds to the presence of a clear coloration of medium strength, • 2.5 corresponds to the presence of a coloration that is intermediate between colorations 2 and 3, • 3 corresponds to the presence of a strong coloration.

[6] = substrate 300 mg/l +500 mg/l of ammoniacal iron citrate
[7] = substrate 300 mg/l +50 mg of ammoniacal iron citrate

Compound: OC[C@H]1O[C@@H](Oc2cccc3cccnc23)[C@H](O)[C@@H](O)[C@@H]1O [8-Hydroxyquinoline-β-glucoside, 8-hydroxyquinoline-β-glucoside]
- Co = coloration (Clostridium difficile [1]; substrate 150 mg/l): 5/10
- Gr = growth (Clostridium difficile [1]; substrate 150 mg/l): 10/10

Compound: O=c1oc2cc(O)c(O[C@@H]3O[C@H](CO)[C@@H](O)[C@H](O)[C@H]3O)cc2c2c1CCCC2 [CHE-β-glucoside, 3,4-cyclohexenoesculetin-β-glucoside]
- sensitivity with respect to Clostridium difficile (Clostridium difficile [2]; Example 5, from 24 h onward): good sensitivity
- strains of Clostridium difficile revealed (Clostridium difficile [2]; from 24 h onward, with a minimum of false positives): ~90%
- Co = coloration (Other Clostridium): 6/17
- Gr = growth (Other Clostridium): 17/17
- specificity with respect to Clostridium difficile [3]: good specificity
- Co = coloration (Clostridium difficile [4]; [6]): 20/21
- Gr = growth (Clostridium difficile [4]; [6]): 21/28
- sensitivity with respect to Clostridium difficile (Clostridium difficile [4]): good sensitivity

Compound: 5-bromo-3-indoxyl-β-glucoside [Blue-β-glucoside]
- diffusion of the coloration (Clostridium difficile [1]; Blue substrate 300 mg/l): *
- Co = coloration (Clostridium difficile [1]; Blue substrate 300 mg/l): 10/10
- Gr = growth (Clostridium difficile [1]; Blue substrate 300 mg/l): 10/10

Compound: dihydroxyflavone-β-glucoside [DHF-β-glucoside]
- Co = coloration (Other Clostridium): 3/12
- Gr = growth (Other Clostridium): 12/14
- Co = coloration (Clostridium difficile [1]; substrate 300 mg/l): 10/10
- Gr = growth (Clostridium difficile [1]; substrate 300 mg/l): 10/10
- Co = coloration (Clostridium difficile [4]; [7]): 20/28
- Gr = growth (Clostridium difficile [4]; [7]): 28/28

Compound: O=c1ccc2cc(O[C@@H]3O[C@H](CO)[C@@H](O)[C@H](O)[C@H]3O)c(O)cc2o1 [esculin, esculetin-β-glucoside]
- effect on the strength of the coloration [5]: positive effect

Compound: O=C1c2ccccc2C(=O)c2c1ccc(O[C@@H]1O[C@H](CO)[C@@H](O)[C@H](O)[C@H]1O)c2O [Alizarin-β-glucoside, 1,2-dihydroxyanthraquinone-β-glucoside]
- Co = coloration (Other Clostridium): 2/16
- Gr = growth (Other Clostridium): 16/17
- Co = coloration (Clostridium difficile [1]; substrate 50 mg/l): 8/10
- Gr = growth (Clostridium difficile [1]; substrate 50 mg/l): 10/10
- Co = coloration (Clostridium difficile [4]; substrate 50 mg/l): 18/22
- Gr = growth (Clostridium difficile [4]; substrate 50 mg/l): 22/28
- sensitivity with respect to Clostridium difficile (Clostridium difficile [4]): good sensitivity

Compound: 5-bromo-6-chloro-3-indoxyl-β-glucoside [Magenta-β-glucoside]
- Co = coloration (Other Clostridium): 6/17
- Gr = growth (Other Clostridium): 17/17
- Co = coloration (Clostridium difficile [4]; substrate 80 mg/l): 16/18
- Gr = growth (Clostridium difficile [4]; substrate 80 mg/l): 18/28
- sensitivity with respect to Clostridium difficile (Clostridium difficile [4]): good sensitivity
